± gives the standard deviation of the averaged measurements.
Legend:
Details in all cases: 72 h
[1] = test system: Calu-3; assay: drug sensitivity score (DSS) for viability; higher = more toxic; extreme values may be limits of the assay
[2] = test system: Caco-2; assay: as above
[3] = test system: Vero E6; assay: as above
[4] = test system: HepG2; assay: as above
[5] = test system: U2OS; assay: as above
[6] = test system: Calu-3; assay: relative viability EC50 (midpoint between 100% and the lowest measured viability); higher = less toxic
[7] = test system: Caco-2; assay: as above
[8] = test system: Vero E6; assay: as above
[9] = test system: HepG2; assay: as above
[10] = test system: U2OS; assay: as above
[11] = test system: Calu-3; assay: cell viability relative to DMSO; higher = less toxic
[12] = test system: Caco-2; assay: as above
[13] = test system: Vero E6; assay: as above
[14] = test system: HepG2; assay: as above
[15] = test system: U2OS; assay: as above

Row | Structure (SMILES) | drug sensitivity score [1] | drug sensitivity score [2] | drug sensitivity score [3] | drug sensitivity score [4] | drug sensitivity score [5] | relative viability EC50 [6] [µM] | relative viability EC50 [7] [µM] | relative viability EC50 [8] [µM] | relative viability EC50 [9] [µM] | relative viability EC50 [10] [µM] | cell viability ([11]; 1 nM) [%] | cell viability ([11]; 10 nM) [%] | cell viability ([11]; 100 nM) [%] | cell viability ([11]; 1000 nM) [%] | cell viability ([11]; 10000 nM) [%] | cell viability ([12]; 1 nM) [%] | cell viability ([12]; 10 nM) [%] | cell viability ([12]; 100 nM) [%] | cell viability ([12]; 1000 nM) [%] | cell viability ([12]; 10000 nM) [%] | cell viability ([13]; 1 nM) [%] | cell viability ([13]; 10 nM) [%] | cell viability ([13]; 100 nM) [%] | cell viability ([13]; 1000 nM) [%] | cell viability ([13]; 10000 nM) [%] | cell viability ([14]; 1 nM) [%] | cell viability ([14]; 10 nM) [%] | cell viability ([14]; 100 nM) [%] | cell viability ([14]; 1000 nM) [%] | cell viability ([14]; 10000 nM) [%] | cell viability ([15]; 1 nM) [%] | cell viability ([15]; 10 nM) [%] | cell viability ([15]; 100 nM) [%] | cell viability ([15]; 1000 nM) [%] | cell viability ([15]; 10000 nM) [%]
1 | Nc1ccc(-c2ccc3ncc4ccc(=O)n(-c5cccc(C(F)(F)F)c5)c4c3c2)cn1 [torin-2] | 28.1 | 26.6 | 21 | 24.5 | 27.3 | 0.0111 | 0.0169 | 0.0738 | 0.0594 | 0.0481 | 86.3 | 62.6 | 30.2 | 22.2 | 18.5 | 89.4 | 69.1 | 32.7 | 21.7 | 17.8 | 94.6 | 77.1 | 48.6 | 36 | 11.5 | 91.2 | 81.6 | 41.2 | 16.3 | 3.4 | 92.5 | 90.8 | 26.6 | 11 | 0.5
2 | CC[N+](CC)(CC)CCC(O)(c1ccccc1)C1CCCCC1 (stereo not given) [tridihexethyl] | 0 | 0 | 0 | 0 | 0 | > 10 | > 10 | > 10 | > 10 | > 10 | 104 | 104 | 96.9 | 103 | 106 | 100 | 92.8 | 102 | 92.7 | 110 | 96.4 | 93.6 | 97.2 | 97.6 | 103 | 99.8 | 108 | 92.5 | 89 | 112 | 101 | 94.5 | 97.1 | 106 | 103
3 | Nc1ncnc2c1ncn2[C@@H]1O[C@H](CO)[C@@H](O)[C@H]1O [adenosine] | 0 | 0 | 0 | 0.1 ± 0.14 | 0 | > 10 | > 10 | > 10 | > 10 | > 10 | 107 | 88.4 | 96.3 | 96.1 | 95.2 | 103 ± 2.4 | 100 ± 4.7 | 97.9 ± 1.8 | 94.5 ± 1.1 | 95.2 ± 8.6 | 102.5 ± 0.99 | 102 ± 2.3 | 97.3 ± 3.5 | 103.5 ± 0.35 | 99.95 ± 0.35 | 98.05 ± 0.21 | 102 ± 6.9 | 96.7 ± 6.6 | 110 ± 9.2 | 88 ± 9.1 | 102 ± 1.8 | 98 ± 3 | 98.2 ± 3.2 | 98.5 ± 2.2 | 104 ± 5.9
4 | CC(=O)c1ccc(S(=O)(=O)NC(=O)NC2CCCCC2)cc1 [acetohexamide] | 0 | 3.7 | 0 | 0 | 0 | > 10 | > 10 | > 10 | > 10 | > 10 | 91.8 | 112 | 90.2 | 107 | 104 | 97.1 | 85.8 | 90.7 | 75.4 | 83.1 | 92.7 | 98.2 | 97.1 | 98.9 | 110 | 99.5 | 103 | 106 | 113 | 106 | 95.1 | 98 | 96.6 | 96.3 | 96.9
5 | O=C1NCC2(CCN(CCc3ccccc3)CC2)O1 [fenspiride] | 0 | 0 | 0 | 0 | 0 | > 10 | > 10 | > 10 | > 10 | > 10 | 96.6 | 92.5 | 85 | 92.3 | 98.9 | 99 | 103 | 91.2 | 101 | 104 | 94.9 | 98.3 | 97.9 | 103 | 103 | 96.7 | 107 | 100 | 112 | 103 | 105 | 97.7 | 101 | 99.2 | 108
6 | COc1nccnc1NS(=O)(=O)c1ccc(N)cc1 [sulfametopyrazine] | 0 | 0 | 0 | 0 | 0 | > 10 | > 10 | > 10 | > 10 | > 10 | 98.5 | 97 | 98.1 | 101 | 102 | 99.7 | 87.3 | 101 | 89.7 | 102 | 102 | 107 | 95.2 | 100 | 97.5 | 97.6 | 99.7 | 103 | 91.9 | 99.4 | 102 | 95.4 | 104 | 96.8 | 98.9
7 | CCS(=O)(=O)c1cccc(-c2cc(C(=O)NC3CCN(C)CC3)c(C)c3[nH]c4ncc(C)cc4c23)c1 [TAK-901] | 8 | 6.7 | 1.1 | 12.7 | 8.9 | 1.28 | 1.06 | > 10 | 0.439 | 1.43 | 108 | 100 | 95.5 | 69.9 | 21.3 | 98.4 | 99.7 | 90.4 | 72 | 36.5 | 105 | 100 | 100 | 97 | 78.7 | 94.1 | 104 | 76.5 | 48.1 | 15.7 | 98.3 | 98.5 | 98.9 | 73.6 | 9.3

From the supplement of paper PMC13380429
